For seven compounds, pKB results are on record in ChEMBL document CHEMBL1150464, “Glycosyl derivatives of NK2 tachykinin receptor antagonists” (Bioorg Med Chem Lett, 1996).

A word on the pKB: it is −log10 of the KB, conventionally taken in molar units.

Common to all, as to type: functional
The target of assay [1] is T1, Substance-K receptor (Mesocricetus auratus) (UniProt P51144).
T1 sequence (whole entry): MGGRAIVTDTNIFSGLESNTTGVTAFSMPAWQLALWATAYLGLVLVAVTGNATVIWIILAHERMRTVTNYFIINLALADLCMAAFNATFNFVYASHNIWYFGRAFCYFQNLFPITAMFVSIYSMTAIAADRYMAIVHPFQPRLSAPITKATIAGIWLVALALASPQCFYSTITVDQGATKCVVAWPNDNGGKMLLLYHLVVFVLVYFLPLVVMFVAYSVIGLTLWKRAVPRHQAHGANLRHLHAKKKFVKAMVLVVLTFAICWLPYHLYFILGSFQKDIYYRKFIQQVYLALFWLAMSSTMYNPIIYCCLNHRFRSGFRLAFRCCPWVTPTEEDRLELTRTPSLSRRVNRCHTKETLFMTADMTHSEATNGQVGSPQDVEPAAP
Nature of the assay: Compound was tested for its antagonistic activity against tachykinin NK2 receptor in hamster trachea (HT); inactive up to 10 uM.

Assay [2] deals with T2, Substance-K receptor (Oryctolagus cuniculus) (UniProt P79218).
T2 sequence (whole entry): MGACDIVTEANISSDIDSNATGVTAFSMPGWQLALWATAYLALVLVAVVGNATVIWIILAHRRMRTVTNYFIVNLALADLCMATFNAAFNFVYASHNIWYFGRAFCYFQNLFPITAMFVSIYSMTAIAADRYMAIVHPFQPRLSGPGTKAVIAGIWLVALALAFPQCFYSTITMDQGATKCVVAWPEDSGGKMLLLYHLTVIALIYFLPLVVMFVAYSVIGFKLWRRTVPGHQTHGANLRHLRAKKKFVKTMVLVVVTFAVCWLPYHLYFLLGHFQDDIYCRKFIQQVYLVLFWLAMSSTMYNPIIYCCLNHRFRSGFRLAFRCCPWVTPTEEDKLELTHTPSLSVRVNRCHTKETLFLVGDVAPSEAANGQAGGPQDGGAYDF
The experiment in a line: Compound was tested for its antagonistic activity against tachykinin NK2 receptor in isolated rabbit pulmonary artery (RPA).

Assay [3] addresses T1, Substance-K receptor (Mesocricetus auratus). The experiment in a line: Compound was tested for its antagonistic activity against tachykinin NK2 receptor in hamster trachea (HT).

Calls of active or inactive are those of the source. The calls are words filed in the database; no cut-off is given here. Peptide text beside a SMILES is read from it. * marks the point of attachment. βGlc = OC[C@H]1O[C@@H](*)[C@H](O)[C@@H](O)[C@@H]1O

As to `CC(C)[C@H](NC(=O)[C@H](Cc1c[nH]c2ccccc12)NC(=O)[C@H](Cc1ccc(O[C@@H]2O[C@H](CO)[C@@H](O)[C@H](O)[C@H]2O)cc1)NC(=O)[C@@H](N)CC(=O)O)C(=O)N[C@@H](Cc1c[nH]c2ccccc12)C(=O)N[C@H](Cc1c[nH]c2ccccc12)C(=O)N[C@@H](CCCCN)C(N)=O`, the pKB result in assay [1] is “inactive”. For the same compound, the pKB in assay [2] came out at 6.2.
For `CC(C)[C@H](NC(=O)[C@H](Cc1c[nH]c2ccccc12)NC(=O)[C@H](Cc1ccc(O[C@@H]2O[C@H](CO)[C@@H](O)[C@H](O)[C@H]2O)cc1)NC(=O)[C@@H](N)CC(=O)O)C(=O)N[C@@H](Cc1c[nH]c2ccccc12)C(N)=O` (H-DY(βGlc)WVW-NH2) the same measures were “inactive” and under 5.
Consider `CC(C)[C@H](NC(=O)[C@@H](Cc1c[nH]c2ccccc12)NC(=O)[C@H](Cc1ccc(O)cc1)NC(=O)[C@@H](N)CC(=O)O)C(=O)N[C@H](Cc1c[nH]c2ccccc12)C(N)=O`, for which the pKB was determined as 5.4 in assay [3] and 6.3 in assay [2].
Taken in the same sequence, the figures for `CC(C)[C@H](NC(=O)[C@H](Cc1c[nH]c2ccccc12)NC(=O)[C@H](Cc1ccc(O)cc1)NC(=O)[C@H](CC(=O)O)NC(=O)[C@@H](N)CO[C@@H]1O[C@H](CO)[C@@H](O)[C@H](O)[C@H]1O)C(=O)N[C@@H](Cc1c[nH]c2ccccc12)C(=O)N[C@H](Cc1c[nH]c2ccccc12)C(=O)N[C@@H](CCCCN)C(N)=O` were under 5 and 7.3.
For `CC(C)[C@H](NC(=O)[C@H](Cc1c[nH]c2ccccc12)NC(=O)[C@H](Cc1ccc(O)cc1)NC(=O)[C@H](CC(=O)O)NC(=O)[C@@H](N)Cc1ccc(O[C@@H]2O[C@H](CO)[C@@H](O)[C@H](O)[C@H]2O)cc1)C(=O)N[C@@H](Cc1c[nH]c2ccccc12)C(=O)N[C@H](Cc1c[nH]c2ccccc12)C(=O)N[C@@H](CCCCN)C(N)=O` the same measures were under 5 and 7.2.
Regarding `CC(C)[C@H](NC(=O)[C@H](Cc1c[nH]c2ccccc12)NC(=O)[C@H](Cc1ccc(O)cc1)NC(=O)[C@@H](N)CC(=O)O)C(=O)N[C@H](Cc1c[nH]c2ccccc12)C(=O)N[C@@H](Cc1c[nH]c2ccccc12)C(=O)N[C@@H](CCCCN)C(N)=O`, the values for the pKB in assay [3] and in assay [2] were 5.6 and 8.1, respectively.
With `CC(C)[C@H](NC(=O)C(Cc1c[nH]c2ccccc12)NC(=O)[C@H](Cc1ccc(O)cc1)NC(=O)[C@H](CC(=O)O)NC(=O)[C@@H](N)CO[C@@H]1O[C@H](CO)[C@@H](O)[C@H](O)[C@H]1O)C(=O)NC(Cc1c[nH]c2ccccc12)C(N)=O` (stereo in doubt), the pKB in assay [3] and in assay [2] was under 6 throughout.
